“And” between values parts separate entries of the source, which are not always exact repeats. Identical values can stand only once.
Assays:
[1] = In vitro enzyme assay to detect hydrolysis of chlorophenol red-beta-D-[…] directly proportional to the number of Toxoplasma stably expressing beta-galactosidase; type: functional, organism-based, Toxoplasma gondii; conditions: for IC50: Toxoplasma gondii
Plasmodium falciparum = experiment: Calibr Malaria Delayed Death Assay SOP; type: functional, organism-based
Schistosoma mansoni = experiment: High throughput screening of compounds against Schistosoma mansoni motility; type: functional; design: dose or concentration left out as unconfirmed
[2] = microbe, parasite or virus in culture; conditions: Mycobacterium tuberculosis, 72 h, read-out: pIC50 (converted)
[3] = microbe, parasite or virus in culture; conditions: Mycobacterium tuberculosis, 96 h, read-out: pIC50 (converted)
ClpP1P2 = ClpP1P2 (Mycobacterium tuberculosis (strain ATCC 25618 / H37Rv), UniProt P9WPC3+P9WPC5); experiment: in vitro assay to detect presence of AMC directly proportional to the activity of ClpP1P2. GHDDI collaboration.; type: functional

Structure (SMILES) | IC50 [1] | other results
CCCNC(=O)c1cc(-c2cnc(N3CCCC3)nc2)cn1C | – | pIC50 [1]: 4.78 and 4.438
CC(=O)c1cccc(OCC(=O)Nc2cc(C)on2)c1 | > 50.1 µM | –
CCCc1nc(CN(CC)C(=O)c2onc3ccccc23)no1 | > 50.1 µM | –
COc1ccc(C2=NOC(C(=O)N3CCCc4ccccc43)C2)cc1 (stereo not drawn) | 27.9 µM | –
CCNC(=O)CN1CCCC(c2nccn2CC)C1 (stereo not drawn) | > 50.1 µM | –
COCCN(Cc1ccccc1Cl)c1nc(CCN)nc2ccccc12 | 13 µM | –
CNCc1ccc(N)nc1 | > 50.1 µM | –
CC(C)Cn1cc(NC(=O)N2CCC(O)C2)cn1 (stereo not drawn) | > 50.1 µM | –
CCc1nc2ccccc2c(=O)n1CC1(O)CCN(C(=O)COC)CC1 | > 50.1 µM | –
CC(Cc1ccco1)NS(=O)(=O)N1CCOCC1 (stereo not drawn) | > 50.1 µM | –
CC(C)COC1CCN(S(=O)(=O)N2CCCC2)CC1 | > 50.1 µM | –
O=C(NCc1nc(C2CC2)no1)Nc1nncs1 | > 50.1 µM | –
c1nc(N2CCOCC2)nc2c1COCC21CCN(CC2CC2)C1 (stereo not drawn) | 44 µM | pIC50 [1]: < 4.3
O=C(NCCC1=CCCCC1)c1cc(-c2ccc(O)cc2)n[nH]1 | 0.391 µM | –
CC(C)CNC(=O)CSc1n[nH]c(-c2ccccn2)n1 | > 50.1 µM | –
CCCc1ccc2oc(C(=O)N3CCC(O)CC3)c(C)c2c1 | > 50.1 µM | –
CC(C)(CO)C(N)c1ccccc1 (stereo not drawn) | > 50.1 µM | –
CN(C)CCCNCCC(Cc1ccccc1)C1CCOC(C)(C)C1.O=C(O)C(=O)O (stereo not drawn) | 4.6 µM | pIC50 [1]: 5.163
CCS(=O)(=O)N(CCc1cccs1)CC(=O)NC | > 50.1 µM | –
COc1ncccc1C(=O)N1CCc2ccccc2C1 | > 50.1 µM | –
Nc1ccc(CN2CCN(CCO)CC2)cn1 | > 50.1 µM | –
CCC(=O)N1CCN(c2ncnc3cc4c(cc23)OCCO4)CC1 | > 50.1 µM | –
CCc1ccc(CN(CCO)Cc2nccn2C)nc1 | > 50.1 µM | –
CC1CN(C)CCC1=O (stereo not drawn) | > 50.1 µM | –

Structure (SMILES) | IC50 [1] | other results
CCN(CC)Cc1nnnn1-c1ccccc1 | > 50.1 µM | –
Cc1ocnc1C(=O)Nc1ccc2c(c1)NCCC2 | > 50.1 µM | –
Nc1nc2c(c(NCc3nccs3)n1)CCN(CC1CCCC1)CC2 | 7.85 µM | –
O=C(NC1CCCSC1)N(CCO)C1CC1 (stereo not drawn) | > 50.1 µM | –
COCc1nnc(-c2cccc(C(=O)N(C)CC(C)(C)C)c2)o1 | > 50.1 µM | –
CC(C)=CCN1CCOC(Cn2nc(C)cc2C)C1 (stereo not drawn) | > 50.1 µM | –
CCN1C[C@H](NC(=O)c2snnc2C(C)C)[C@@H](OC)C1 | > 50.1 µM | –
CNc1cc(-c2cccc(OC)c2OC)nc(N)n1 | > 50.1 µM | –
Cc1cc(NCCCOC(C)C)c2nncn2n1 | > 50.1 µM | –
COCC(=O)NCc1nn(CCN2CCCC2)c(=O)c2ccccc12 | 26.7 µM | –
CCc1nc(Nc2cccc(C(=O)NC)c2)c2c(n1)c(C)nn2CC | > 50.1 µM | –
Cc1ncc(C(=O)N2C[C@@H]3CCCN[C@@H]3C2)c(C)n1 | > 50.1 µM | –
CCCn1ncc(-c2ccnc(N[C@@H]3C[C@@H]4CC[C@H]3C4)n2)c1C | 5.59 µM | –
CC(=O)Nc1ncc(S(=O)(=O)Nc2cccc(F)c2)s1 | > 50.1 µM | –
CCOCC(C)OC(=O)c1ccnn1C (stereo not drawn) | > 50.1 µM | –
CCN1CC2(CC1=O)CN(Cc1ccoc1)CCN(C(=O)C(C)C)C2 (stereo not drawn) | > 50.1 µM | –
Fc1cnc(N2CCO[C@H]3CN(CC4CCCCC4)C[C@H]32)nc1 | > 50.1 µM | –
CC(C)C(O)CCNS(=O)(=O)c1ccccc1 (stereo not drawn) | > 50.1 µM | –
CCCc1nc(NCCCn2ccnc2)c2c(n1)c(C)nn2CC | > 50.1 µM | –
O=C(COc1ccc2c(c1)CCC2)NCc1ccco1 | 35.5 µM | –
Cc1ccc(F)cc1C(=O)NC1CCCNC1 (stereo not drawn) | > 50.1 µM | –
COc1ccccc1N1CCCC(N)C1 (stereo not drawn) | > 50.1 µM | –
Fc1ccccc1CN1CCn2ccnc2C1 | > 50.1 µM | –
Cn1nnnc1SCCNC(=O)c1cc(Cl)ccc1F | > 50.1 µM | –

Structure (SMILES) | IC50 [1] | other results
CCC(C)(CC(=O)OC)NCc1cc(C)on1 (stereo not drawn) | > 50.1 µM | –
COc1ccc(-c2nnc(SC(C)C(=O)NC3CCCC3)[nH]2)c(OC)c1 (stereo not drawn) | > 50.1 µM | –
Cc1cc(=O)cc(C(=O)NCCC(C)n2ccnc2)o1 (stereo not drawn) | > 50.1 µM | –
CC(=O)NCc1cccc(OCc2ccccn2)c1 | > 50.1 µM | –
Cc1[nH]c2ccccc2c1-c1ccnc(N[C@H](CO)CC(C)C)n1 | > 50.1 µM | –
Cc1nn(C)c(C)c1CNC(=O)c1cc(NC(=O)C2CC2)n(C)n1 | > 50.1 µM | –
NC1CCN(Cc2ccccc2)C1=O (stereo not drawn) | > 50.1 µM | –
CCN1CCN(Cc2nnnn2C2CC2)CC1 | > 50.1 µM | –
CS(=O)(=O)c1ccc(-c2cc(O)cc(CCC3CCCCN3)c2)cc1 (stereo not drawn) | 16.6 µM | –
CC(C)CC(=O)N1CC[C@H]2N(C)CC[C@@]2(C(=O)Nc2ccccc2)CC1 | > 50.1 µM | –
N#CCCNC(=O)CN1CCCC1 | > 50.1 µM | –
Cn1cc(CN)c(C(F)(F)F)n1 | > 50.1 µM | –
Cn1cc(CN2C[C@@H]3COC[C@H](C(=O)Nc4cccnc4)[C@@H]3C2)cn1 | > 50.1 µM | –
NC1CCN(CC(F)F)CC1 | > 50.1 µM | –
CCN(CC(C)C#N)C(=O)c1ccc(Br)o1 (stereo not drawn) | > 50.1 µM | –
Cc1nc(N2CCN(C(=O)c3ccncc3)CC2)c2c(n1)c(C)nn2C | > 50.1 µM | –
Cn1ccc2ccc(NS(=O)(=O)C3CC3)cc2c1=O | > 50.1 µM | –
CN(C)c1ncc2c(n1)CN(C1CCSCC1)C2=O | > 50.1 µM | –
CCc1nnc(Nc2cc(C)nc(C3CN(C(=O)C(C)C)CCO3)c2)s1 (stereo not drawn) | > 50.1 µM | –
c1csc(-c2noc(C3CNC3)n2)c1 | 2.96 µM | –
Cc1ccc(CNC(=O)c2cc(C)n(C)n2)o1 | > 50.1 µM | –
CCc1noc(CC)c1CNC(=O)Nc1ncnn1C | > 50.1 µM | –
C1CN[C@@H]2CNC[C@@H]2C1 | > 50.1 µM | –
NC1CN(S(=O)(=O)c2ccc3c(c2)OCCO3)C1 | > 50.1 µM | –

Structure (SMILES) | IC50 [1] | other results
Cc1cc(CN)nc(N(C)C)n1 | > 50.1 µM | –
NC1CCN(C(=O)C2(c3cccc(F)c3)CC2)CC1 | > 50.1 µM | –
CCCc1ccc(C(=O)N[C@@H]2CCOC[C@H]2O)cc1 | > 50.1 µM | –
COC[C@@H]1CCC[C@@]12CN(Cc1ccc(C)s1)CCO2 | > 50.1 µM | –
CCN(Cc1nonc1C)C(=O)Cn1nc(C(F)(F)F)cc1C1CC1 | > 50.1 µM | –
COc1ccc(C)cc1CC(=O)N1CCN(C)CC1 | > 50.1 µM | –
CCCc1nc2c(c(C)c(C)n2Cc2ccccn2)c(N)c1CC | 10.4 µM | pIC50 [1]: 4.935
CCc1nc(C)cn1C(=O)Nc1ccccc1 | 5.1 µM | –
COc1ccc(C(=O)Nc2c(C(=O)N(C)C)nn(C)c2C)cc1 | > 50.1 µM | –
O=C(N1CCCC1)N1C[C@H]2CCC[C@@]2(COCc2ccccn2)C1 | > 50.1 µM | –
COc1ccc(NCC(=O)N2CCNC(=O)C2)c(C)c1 | > 50.1 µM | –
COc1ccc(CC(=O)NCC2CCCNC2)cc1F (stereo not drawn) | > 50.1 µM | –
Cc1nn(C)c2c(=O)n(Cc3ccccc3)nnc12 | > 50.1 µM | –
CC(C)S(=O)(=O)N1CCN(C(=O)c2cnn(C)c2Cl)CC1 | > 50.1 µM | –
Cc1cnc(N2CC[C@H]3[C@@H]2CCC(=O)N3c2ccccc2)nc1.O=C(O)C(F)(F)F | > 50.1 µM | pIC50 [1]: 4.34
Cc1nc2c(c(NCc3ccc(N)nc3)n1)CCCC2 | > 50.1 µM | –
O=C(OCCOc1cccnc1)C1CC1 | > 50.1 µM | –
c1ccc(-c2nn3c(CN4CCOCC4)nnc3s2)nc1 | > 50.1 µM | –
CC(=O)c1ccc(OCC(O)Cn2ccnc2)cc1 (stereo not drawn) | > 50.1 µM | –
Cc1nc(N2CCN(C(=O)c3ccco3)CC2)c2c(n1)c(C)nn2C | > 50.1 µM | pIC50 [1]: 4.358
CS(=O)(=O)CCN1CCC(C(N)=O)CC1 | > 50.1 µM | –
CNC(=O)C1(N(C)CCc2ccccc2)Cc2ccccc2C1 | 11.3 µM | –
Cc1ccoc1C(=O)Nc1cccc(CO)n1 | > 50.1 µM | –
Cc1ocnc1CNC(=O)c1ccon1 | > 50.1 µM | –

Structure (SMILES) | IC50 [1] | other results
CCc1nnc(Nc2cc(C)nc(C3CCN(c4ccncn4)C3)n2)s1 (stereo not drawn) | > 50.1 µM | –
CN[C@@H]1COc2ccccc2[C@H](O)C1 | > 50.1 µM | –
CC(=O)N1CCN(c2ncnc3cc4c(cc23)OCCO4)CC1 | > 50.1 µM | –
NC1CCCCNC1=O (stereo not drawn) | > 50.1 µM | –
CC(NC(=O)c1ccc(Cl)cc1)c1nnc(SCC(=O)O)n1C (stereo not drawn) | 29.3 µM | –
CN(CCNS(C)(=O)=O)CCSc1ccccc1 | > 50.1 µM | –
O=C(CC1CCCC1)NCCc1noc(CO)n1 | > 50.1 µM | –
COc1cc2nc(NCc3scnc3C)nc(N)c2cc1OC | 15.6 µM | –
Cc1c(-c2cc(C(F)(F)F)nc(N3CCC(N)CC3)n2)cnn1C | 4.18 µM | pIC50 [1]: 5.176
O=C1NCCN(C(=O)c2ccc(Br)o2)C1c1cccs1 (stereo not drawn) | > 50.1 µM | –
COCC(=O)N1C[C@@H](OCc2ccncc2)[C@@H]2OCCC[C@@H]21 | > 50.1 µM | –
CC(c1cccs1)n1nccc1N (stereo not drawn) | > 50.1 µM | –
CO[C@H]1CC[C@H]2[C@H]1OCCN2Cc1ccc(F)c(F)c1 | > 50.1 µM | –
CN1C(=O)c2cccn2CC1CNC(=O)c1ccco1 (stereo not drawn) | > 50.1 µM | –
O=C1CN(CC(=O)Nc2c(Cl)cccc2Cl)CCN1 | > 50.1 µM | –
CN(Cc1nccs1)c1nc(-c2ccccn2)nc2c1CCNCC2 | – | pIC50 (Plasmodium falciparum): 6.065; IC50 (Plasmodium falciparum; Plasmodium falciparum): 0.882 µM; Percent Effect (Schistosoma mansoni): -21.71%
Cc1cc(N(C)Cc2cc(C)on2)n2nc(C)c(C)c2n1 | – | IC50 [2]: 13.5 µM; IC50 [3]: 33.7 µM; Percent Effect (Schistosoma mansoni): -4.677%
Cn1ncc2c(NCCC34CCCN3CCC4)nc(C3CCCC3)nc21 | – | IC50 [2]: 42.3 µM; IC50 [3]: 26.8 µM; Percent Effect (Schistosoma mansoni): 79%
O=C(c1ccc(Br)o1)N1CCN(Cc2ccc(OC(F)(F)F)cc2)CC1 | – | IC50 [2]: 27.8 µM; IC50 [3]: 40.6 µM; Percent Effect (Schistosoma mansoni): 71.06%
Brc1cc2c(cc1CN1CCC(N3CCCCC3)CC1)OCCO2 | – | IC50 [2]: 19.9 µM; IC50 [3]: > 50.1 µM; Percent Effect (Schistosoma mansoni): -13%
CN(CCc1cccs1)C1CCCN(Cc2noc(C3CC3)n2)C1 (stereo not drawn) | – | IC50 [2]: > 50.1 µM; IC50 [3]: > 50.1 µM; Percent Effect (Schistosoma mansoni): -35.96%
NS(=O)(=O)N1CCc2ccc(NC(=O)Cc3ccc(F)cc3)cc21 | – | IC50 (ClpP1P2): 27.5 µM; Percent Effect (Schistosoma mansoni): -30.69%
O=C(Nc1cccnc1)N1CCC(n2ccc(C(F)(F)F)n2)CC1 | – | IC50 [2]: 1.07 µM; IC50 [3]: > 50.1 µM; Percent Effect (Schistosoma mansoni): -86.87%
COc1ccc(C2CCCN2S(=O)(=O)N(C)CC(C)C)cc1 (stereo not drawn) | – | IC50 [2]: 31.2 µM; IC50 [3]: 13.2 µM; Percent Effect (Schistosoma mansoni): 29.94%

From ChEMBL document CHEMBL3988442, “University of Dundee, Small-Polar-MMV Screening Library” (2021)
